Measured values reported in PMC5684319, “Copper (II) binding of NAD(P)H- flavin oxidoreductase (NfoR) enhances its Cr (VI)-reducing ability” (Scientific Reports, 2017).

Biological target: T1, NfoR (NAD(P)H-flavin oxidoreductase) (Staphylococcus aureus, UniProt Q2FVA4)
T1 construct: gene SAOUHSC_02829; N-terminal 6xHis tag, pET-28a (pEnfoR), E. coli Rosetta (DE3), HisTrap; dimer by homology model only; residues named: His100, His128, Cys163, Met165
T1 sequence (Q2FVA4 1-223): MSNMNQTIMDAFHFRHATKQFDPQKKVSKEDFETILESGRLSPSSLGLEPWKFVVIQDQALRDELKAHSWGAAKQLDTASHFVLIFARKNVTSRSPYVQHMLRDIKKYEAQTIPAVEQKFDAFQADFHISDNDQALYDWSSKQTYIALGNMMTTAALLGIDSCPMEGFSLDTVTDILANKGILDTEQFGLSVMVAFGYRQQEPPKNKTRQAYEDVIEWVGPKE
Assay: HPLC of flavin released by heating the purified protein
Type: binding
Conditions: FMN co-purified with the protein; non-covalent; occupancy, not an affinity

Cc1cc2nc3c(=O)[nH]c(=O)nc-3n(C[C@H](O)[C@H](O)[C@H](O)COP(=O)(O)O)c2cc1C [FMN]
percent of FMN/isolated NfoR: 79.98%
